Data: US11883391B2, “Compositions and methods for treating inflammatory bowel disease using CCR9 inhibitor and anti-IL-23 blocking antibodies” (ChemoCentryx, Inc., priority 2020, dated 2024)

How the values were obtained:
FVBMDR1a(−/−) mice = experiment: 21 Day Piroxicam-Accelerated MDR1a−/− Model Of Colitis: colon weight-to-length ratio; assay type: in vivo; conditions: combined therapy with anti-IL-23; only the combined therapy significantly improved the W:L ratio
From the text: Mice of the FVB strain lacking a functional MDR1 gene (also known as ABCB1, P-gp or CD243) develop a spontaneous infammatory bowel disease. This disease can be accelerated by adding the drug piroxicam to their food. FVB mice bearing a functional MDR1 gene are resistant to this disease.
Piroxicam is included in the mouse food for ten days, and the health of the mouse is monitored for a total of 21 days both during and after the piroxicam feeding. Symptoms monitored during this time include severity of diarrhea and changes in body weight.
The colon inflammation manifests itself as a thickening of the colon wall and shortening of the colon itself. The severity of the disease can thus be assessed via the ratio of the colon's weight to its length.
The mice used were female 6 week old FVBMDR1a(+/+) and FVBMDR1a(−/−). Mice were normalized for body weight (BW) upon reaching 7 weeks of age, at which time their diet was switched to powdered chow containing piroxicam for a total of 10 days. BW and diarrhea score was monitored for 21 days (including the 10 days of piroxicam feeding). Blood was taken for trough compound levels on day 3 and at takedown. Rat IgG levels (anti-IL23 or isotype-matched control) were quantitated by ELISA on terminal blood draw. At takedown, colons were photographed and weight/length ratio calculated. […]

[1] = Trough plasma concentration of compound on day 3 (LC-MS) in the piroxicam-accelerated colitis study; assay type: in vivo, mice; conditions: trough after the 3rd day of dosing, Compound 1 90 mg/kg SC BID, Compound 2 30 mg/kg SC QD, FIG. 1
From the text: The mice used were female 6 week old FVBMDR1a(+/+) and FVBMDR1a(−/−). Mice were normalized for body weight (BW) upon reaching 7 weeks of age, at which time their diet was switched to powdered chow containing piroxicam for a total of 10 days. BW and diarrhea score was monitored for 21 days (including the 10 days of piroxicam feeding). Blood was taken for trough compound levels on day 3 and at takedown. Rat IgG levels (anti-IL23 or isotype-matched control) were quantitated by ELISA on terminal blood draw. At takedown, colons were photographed and weight/length ratio calculated. Two colons from each group were formaldehyde fixed for future pathology assessment and disease scoring. Remaining colons from each group were dissociated for flow cytometry analysis of infiltrating immune cells.
Compound 1 was dosed at 90 mg/kg in 10% Cremophor-EL, SC, BID, and Compound 2 was dosed at 30 mg/kg in 1% HPMC, SC, QD. Vehicle 1 was 10% Cremophor-EL and was administered SC, BID. Vehicle 2 was 1% HPMC administered SC, QD. Anti-mouse IL-23 Clone G23-8 (Rat IgG1) was dosed at 300 μg/mouse, QD/QOD; Isotype-matched control Clone HRPN (Rat IgG1) was dosed at 300 μg/mouse, QD/QOD.
Blood was taken at trough from all Compound 1- and Compound 2-dosed mice, and plasma analyzed by Liquid Chromatography-Mass Spectroscopy to determine the concentration. Trough blood was taken after the 3rd day of dosing (FIG. 1).

SMILES | synergy with anti-IL-23 to improve colon inflammation (W:L ratio) (FVBMDR1a(−/−) mice) | Trough plasma concentration vs minimal concentration established for 98% receptor coverage [1]
CC(C)(C)c1ccc(S(=O)(=O)Nc2ccc(Cl)cc2C(=O)c2cc[n+]([O-])cc2)cc1 [Compound 1] | synergized | met or exceeded the minimal concentration established for 98% receptor coverage
Cc1cc(NS(=O)(=O)c2ccc(C(C)(C)C)c(F)c2)n(-c2cccc3nc(N)ccc23)n1 [Compound 2] | synergized | met or exceeded the minimal concentration established for 98% receptor coverage
